Data published in patent publication US20260091026A1, “METHODS OF TREATING INFLAMMATORY DISEASES” (INTERLINE THERAPEUTICS, INC., priority 2023, published 2026).

Key:
[1] = target: T1, RIPK2 (KD)/XIAP (BIR2) (Homo sapiens, UniProt O43353); experiment: RIPK2-XIAP binding competition PPI assay (TR-FRET); details: for Emax: 50 nM of GSK583 = -100% activity, read-out: PPI Amax; for IC50: GST-RIPK2 / His-XIAP (BIR2)-avi, 120 min at 23° C.
T1 construct: made in house; host or cells: baculovirus-infected Sf9 cells
T1 sequence (O43353 1-310): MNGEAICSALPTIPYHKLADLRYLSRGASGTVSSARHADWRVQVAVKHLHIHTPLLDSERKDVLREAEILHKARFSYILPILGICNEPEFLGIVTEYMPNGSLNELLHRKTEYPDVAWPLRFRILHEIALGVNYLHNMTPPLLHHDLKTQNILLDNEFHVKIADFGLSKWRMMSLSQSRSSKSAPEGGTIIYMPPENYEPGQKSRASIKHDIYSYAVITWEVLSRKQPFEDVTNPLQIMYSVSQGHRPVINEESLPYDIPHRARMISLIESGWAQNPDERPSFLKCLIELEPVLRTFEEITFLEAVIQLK
In short: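 TR-FRET competition between GST-RIPK2 (aa 1-310, 1 nM) and His-XIAP BIR2-avi (aa 152-231, 25 nM), both Sf9-expressed, detected with anti-His-XL665 and anti-GST-Tb in Tris pH 7.5 buffer with MgCl2, DTT and vanadate. Incubation was 120 min at 23 °C; the 665/520 nm ratio was normalized to no inhibitor (0%) and 50 nM GSK583 (−100%).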

[2] = system: THP1-Dual cells, NF-κB pathway (SEAP); experiment: THP-1 Dual cell SEAP assay (L18-MDP stimulated); type: cell-based; details: Homo sapiens, 10 ng/mL L18-MDP, 20-24 h, SEAP readout, read-out: IFNγ THP1 IC50
In short: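 About 25,000 THP1-Dual cells per well were preincubated 30 min with serially diluted compound, then stimulated overnight (20-24 h, 37 °C) with 10 ng/mL L18-MDP (final). NF-κB-driven SEAP in supernatant was read with QUANTI-Blue at OD 620-655 nm after 2 h; % inhibition versus DMSO/L18-MDP wells was fitted by non-linear regression to give IC50.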

SMILES | Emax [1] [%] | IC50 [1] [nM] | IC50 [2] [nM]
COc1cc2ncc(-c3cc(C(=O)N[C@H](C)c4ncccn4)n(C4CC4)n3)n2cc1S(=O)(=O)C(C)(C)C [Example 100, (R)-3-(6-(tert-butylsulfonyl)-7-methoxyimidazo[1,2-a]pyridin-3-yl)-1-cyclopropyl-N-(1-(pyrimidin-2-yl)ethyl)-1H-pyrazole-5-carboxamide] | ≥ 80 | < 10 | < 100
COc1cc2ncc(-c3cc(C(=O)N[C@H](C)c4ccccn4)n(C(C)C)n3)n2cc1S(=O)(=O)C(C)(C)C [Example 101, (R)-3-(6-(tert-butylsulfonyl)-7-methoxyimidazo[1,2-a]pyridin-3-yl)-1-isopropyl-N-(1-(pyridin-2-yl)ethyl)-1H-pyrazole-5-carboxamide] | ≥ 80 | < 10 | < 100
COc1cc2ncc(-c3cc(C(=O)N[C@H](C)c4ncccn4)n(C(C)C)n3)n2cc1S(=O)(=O)C(C)(C)C [Example 102, (R)-3-(6-(tert-butylsulfonyl)-7-methoxyimidazo[1,2-a]pyridin-3-yl)-1-isopropyl-N-(1-(pyrimidin-2-yl)ethyl)-1H-pyrazole-5-carboxamide] | ≥ 80 | < 10 | < 100
COc1cc2ncc(-c3cc(C(=O)N[C@H](C)c4ncccn4)n(C)n3)n2cc1S(=O)(=O)C(C)(C)C [Example 103, (R)-3-(6-(tert-butylsulfonyl)-7-methoxyimidazo[1,2-a]pyridin-3-yl)-1-methyl-N-(1-(pyrimidin-2-yl)ethyl)-1H-pyrazole-5-carboxamide] | ≥ 80 | 10 to 100 | 100 to 500
COc1cc2ncc(-c3cc(C(=O)N[C@H](C)c4ncc(F)cn4)n(C)n3)n2cc1S(=O)(=O)C(C)(C)C [Example 104, (R)-3-(6-(tert-butylsulfonyl)-7-methoxyimidazo[1,2-a]pyridin-3-yl)-N-(1-(5-fluoropyrimidin-2-yl)ethyl)-1-methyl-1H-pyrazole-5-carboxamide] | ≥ 80 | > 1000 | > 2500
COCCn1nc(-c2cnc3cc(OC)c(S(=O)(=O)C(C)(C)C)cn23)cc1C(=O)N[C@H](C)c1ccccn1 [Example 105, (R)-3-(6-(tert-butylsulfonyl)-7-methoxyimidazo[1,2-a]pyridin-3-yl)-1-(2-methoxyethyl)-N-(1-(pyridin-2-yl)ethyl)-1H-pyrazole-5-carboxamide] | ≥ 80 | 10 to 100 | 500 to 2500
COc1cc2ncc(-c3cc(C(=O)N[C@H](C)c4ccccn4)n(CC(F)(F)CO)n3)n2cc1S(=O)(=O)C(C)(C)C [Example 106, (R)-3-(6-(tert-butylsulfonyl)-7-methoxyimidazo[1,2-a]pyridin-3-yl)-1-(2,2-difluoro-3-hydroxypropyl)-N-(1-(pyridin-2-yl)ethyl)-1H-pyrazole-5-carboxamide] | ≥ 80 | 10 to 100 | 100 to 500
COc1cc2ncc(-c3cc(C(=O)N[C@H](C)c4ncccn4)n(CC(F)(F)CO)n3)n2cc1S(=O)(=O)C(C)(C)C [Example 107, (R)-3-(6-(tert-butylsulfonyl)-7-methoxyimidazo[1,2-a]pyridin-3-yl)-1-(2,2-difluoro-3-hydroxypropyl)-N-(1-(pyrimidin-2-yl)ethyl)-1H-pyrazole-5-carboxamide] | ≥ 80 | 10 to 100 | 500 to 2500
C[C@@H](NC(=O)c1cc(-c2cnc3cc(OCCO)c(S(=O)(=O)C(C)(C)C)cn23)nn1C)c1ncccn1 [Example 108, (R)-3-(6-(tert-butylsulfonyl)-7-(2-hydroxyethoxy)imidazo[1,2-a]pyridin-3-yl)-1-methyl-N-(1-(pyrimidin-2-yl)ethyl)-1H-pyrazole-5-carboxamide] | ≥ 80 | 10 to 100 | 100 to 500
C[C@@H](NC(=O)c1cc(-c2cnc3cc(OCCO)c(S(=O)(=O)C(C)(C)C)cn23)nn1C)c1ccccn1 [Example 109, (R)-3-(6-(tert-butylsulfonyl)-7-(2-hydroxyethoxy)imidazo[1,2-a]pyridin-3-yl)-1-methyl-N-(1-(pyridin-2-yl)ethyl)-1H-pyrazole-5-carboxamide] | ≥ 80 | 10 to 100 | 100 to 500
C[C@@H](NC(=O)c1cc(-c2cnc3cc(OCCO)c(S(=O)(=O)C(C)(C)C)cn23)nn1C)c1ncccc1F [Example 110, (R)-3-(6-(tert-butylsulfonyl)-7-(2-hydroxyethoxy)imidazo[1,2-a]pyridin-3-yl)-N-(1-(3-fluoropyridin-2-yl)ethyl)-1-methyl-1H-pyrazole-5-carboxamide] | ≥ 80 | 10 to 100 | < 100
C[C@@H](NC(=O)c1cc(-c2cnc3cc(OCCO)c(S(=O)(=O)C(C)(C)C)cn23)nn1C)c1ncccc1Cl [Example 111, (R)-3-(6-(tert-butylsulfonyl)-7-(2-hydroxyethoxy)imidazo[1,2-a]pyridin-3-yl)-N-(1-(3-chloropyridin-2-yl)ethyl)-1-methyl-1H-pyrazole-5-carboxamide] | ≥ 80 | 10 to 100 | 100 to 500
C[C@H](NC(=O)c1cc(-c2cnc3cc(OCCO)c(S(=O)(=O)C(C)(C)C)cn23)nn1C)c1ncccc1Cl [Example 112, (S)-3-(6-(tert-butylsulfonyl)-7-(2-hydroxyethoxy)imidazo[1,2-a]pyridin-3-yl)-N-(1-(3-chloropyridin-2-yl)ethyl)-1-methyl-1H-pyrazole-5-carboxamide] | 55 to 80 | > 1000 | > 2500
COc1cn2ncc(-c3cc(C(=O)N[C@H](C)c4ccccn4)n(C)n3)c2cc1S(=O)(=O)C(C)(C)C [Example 113, (R)-3-(5-(tert-butylsulfonyl)-6-methoxypyrazolo[1,5-a]pyridin-3-yl)-1-methyl-N-(1-(pyridin-2-yl)ethyl)-1H-pyrazole-5-carboxamide] | ≥ 80 | 100 to 1000 | 500 to 2500
COc1cn2ncc(-c3cc(C(=O)N[C@H](C)c4ncccc4F)n(C)n3)c2cc1S(=O)(=O)C(C)(C)C [Example 114, (R)-3-(5-(tert-butylsulfonyl)-6-methoxypyrazolo[1,5-a]pyridin-3-yl)-N-(1-(3-fluoropyridin-2-yl)ethyl)-1-methyl-1H-pyrazole-5-carboxamide] | ≥ 80 | 10 to 100 | 100 to 500
C[C@@H](NC(=O)c1cc(-c2cnn3cc(OCCO)c(S(=O)(=O)C(C)(C)C)cc23)nn1C)c1ccccn1 [Example 115, (R)-3-(5-(tert-butylsulfonyl)-6-(2-hydroxyethoxy)pyrazolo[1,5-a]pyridin-3-yl)-1-methyl-N-(1-(pyridin-2-yl)ethyl)-1H-pyrazole-5-carboxamide] | ≥ 80 | 10 to 100 | 500 to 2500
C[C@@H](NC(=O)c1cc(-c2cnn3cc(OCCO)c(S(=O)(=O)C(C)(C)C)cc23)nn1C)c1ncccc1F [Example 116, (R)-3-(5-(tert-butylsulfonyl)-6-(2-hydroxyethoxy)pyrazolo[1,5-a]pyridin-3-yl)-N-(1-(3-fluoropyridin-2-yl)ethyl)-1-methyl-1H-pyrazole-5-carboxamide] | ≥ 80 | 10 to 100 | 100 to 500
CCn1nc(-c2cnn3cc(OCCO)c(S(=O)(=O)C(C)(C)C)cc23)cc1C(=O)N[C@H](C)c1ncccn1 [Example 117, (R)-3-(5-(tert-butylsulfonyl)-6-(2-hydroxyethoxy)pyrazolo[1,5-a]pyridin-3-yl)-1-ethyl-N-(1-(pyrimidin-2-yl)ethyl)-1H-pyrazole-5-carboxamide] | ≥ 80 | 10 to 100 | < 100
CCn1nc(-c2cnc3cc(OCCO)c(S(=O)(=O)C(C)(C)C)cn23)cc1C(=O)N[C@H](C)c1ncccc1F [Example 118, (R)-3-(6-(tert-butylsulfonyl)-7-(2-hydroxyethoxy)imidazo[1,2-a]pyridin-3-yl)-1-ethyl-N-(1-(3-fluoropyridin-2-yl)ethyl)-1H-pyrazole-5-carboxamide] | ≥ 80 | < 10 | < 100
CCn1nc(-c2cnc3cc(OCCO)c(S(=O)(=O)C(C)(C)C)cn23)cc1C(=O)N[C@H](C)c1ncccn1 [Example 119, (R)-3-(6-(tert-butylsulfonyl)-7-(2-hydroxyethoxy)imidazo[1,2-a]pyridin-3-yl)-1-ethyl-N-(1-(pyrimidin-2-yl)ethyl)-1H-pyrazole-5-carboxamide] | ≥ 80 | < 10 | < 100
CCn1nc(-c2cnc3cc(OCCO)c(S(=O)(=O)C(C)(C)C)cn23)cc1C(=O)N[C@H](C)c1nccs1 [Example 120, (R)-3-(6-(tert-butylsulfonyl)-7-(2-hydroxyethoxy)imidazo[1,2-a]pyridin-3-yl)-1-ethyl-N-(1-(thiazol-2-yl)ethyl)-1H-pyrazole-5-carboxamide] | ≥ 80 | < 10 | < 100
CCn1nc(-c2cnc3cc(OCCO)c(S(=O)(=O)C(C)(C)C)cn23)cc1C(=O)N[C@H](C)c1ccccn1 [Example 121, (R)-3-(6-(tert-butylsulfonyl)-7-(2-hydroxyethoxy)imidazo[1,2-a]pyridin-3-yl)-1-ethyl-N-(1-(pyridin-2-yl)ethyl)-1H-pyrazole-5-carboxamide] | ≥ 80 | < 10 | < 100
